Measurements: BindingDB's records for PubMed 20033049 (Institute)

Legend:
[1] = Inhibition of TEL fused BMX (unknown origin) transformed in mouse BaF3 cells
[2] = Inhibition of TEL fused BLK (unknown origin) transformed in mouse BaF3 cells

For `C=CC(=O)Nc1cccc(Oc2nc(Nc3ccc(N4CCN(C)CC4)cc3)ncc2Cl)c1`, the IC50 [1] was 0.4 nM and the IC50 [2] was 20 nM.
